Data on 19 compounds can be found in patent US20230322846A9, “NEUROACTIVE STEROIDS AND THEIR METHODS OF USE” (SAGE THERAPEUTICS, INC., priority 2018, published 2023).

Bounds are passed on as bounds.

The assay addresses [35S]-TBPS binding, rat brain cortical membranes. The assay can be described thus: Steroid inhibition of [35S]-TBPS binding. As to conditions: 3 nM [35S]-TBPS, in the presence of 5 mM GABA. Put shortly: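 In the presence of […], compounds (DMSO 0.5% final) competed with 3 nM [35S]-TBPS for Sprague-Dawley rat cortical membranes, pH 7.4 phosphate buffer, 90 min, room temperature. Filtration and scintillation counting; specific binding defined by […]; IC50 and maximal inhibition fitted per experiment, averaged as mean ± SEM.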

For `C[C@@H](Nc1cccc(C#N)c1)[C@H]1CC[C@H]2[C@@H]3CC[C@@H]4C[C@](C)(O)CC[C@@H]4[C@H]3CC[C@]12C` [Example 202], the IC50 (usually the midpoint of a concentration-inhibition curve) was under 100 nM.
With `C[C@@H](Cn1ccnn1)[C@H]1CC[C@H]2[C@@H]3CC[C@H]4C[C@](C)(O)CC[C@@H]4[C@H]3CC[C@]12C` [Example 59, (3R,5S,8R,9R,10S,13S,14S,17R)-17-((R)-1-(1H-1,2,3-triazol-1-yl)propan-2-yl)-3,13-dimethylhexadecahydro-1H-cyclopenta[a]phenanthren-3-ol], the IC50 lay within 100 to 1000 nM.
The figure for `COC[C@@]1(O)CC[C@H]2[C@@H](CC[C@@H]3[C@@H]2CC[C@]2(C)[C@@H]([C@H](C)Cn4nnc(C)n4)CC[C@@H]32)C1` [Example 54, (3R,5S,8R,9R,10S,13S,14S,17R)-3-(methoxymethyl)-13-methyl-17-((S)-1-(5-methyl-2H-tetrazol-2-yl)propan-2-yl)hexadecahydro-1H-cyclopenta[a]phenanthren-3-ol] is 100 to 1000 nM; for `C[C@@H]([C@H]1CC[C@H]2[C@@H]3CC[C@@H]4C[C@](C)(O)CC[C@@H]4[C@H]3CC[C@]12C)n1nccn1` [Example 164, (3R,5R,8R,9R,10S,13S,14S,17S)-17-((S)-1-(2H-1,2,3-triazol-2-yl)ethyl)-3,13-dimethylhexadecahydro-1H-cyclopenta[a]phenanthren-3-ol] it is 1000 to 10000 nM; for `Cc1cncc(C[C@@H](C)[C@H]2CC[C@H]3[C@@H]4CC[C@@H]5C[C@](C)(O)CC[C@@H]5[C@H]4CC[C@]23C)n1` [Example 442] it is 100 to 1000 nM.
Consider `Cc1cc(C#N)ccc1N[C@H]([C@H]1CC[C@H]2[C@@H]3CC[C@@H]4C[C@](C)(O)CC[C@@H]4[C@H]3CC[C@]12C)C(F)(F)F` [Example 490, 3-methyl-4-(((R)-2,2,2-trifluoro-1-((3R,5R,8R,9R,10S,13S,14S,17S)-3-hydroxy-3,13-dimethylhexadecahydro-1H-cyclopenta[a]phenanthren-17-yl)ethyl)amino)benzonitrile], for which the IC50 lay within 100 to 1000 nM.
Regarding `CCOC[C@@]1(O)CC[C@H]2[C@H](CC[C@@H]3[C@@H]2CC[C@]2(C)[C@@H]([C@@H](C)Cn4nccc4C#N)CC[C@@H]32)C1` [Example 285, 1-((R)-2-((3R,5R,8R,9R,10S,13S,14S,17R)-3-(ethoxymethyl)-3-hydroxy-13-methylhexadecahydro-1H-cyclopenta[a]phenanthren-17-yl)propyl)-1H-pyrazole-5-carbonitrile], the IC50 was under 100 nM.
Take `COC[C@@]1(O)CC[C@H]2[C@H](CC[C@@H]3[C@@H]2CC[C@]2(C)[C@@H]([C@@H](C)Cn4ccc(C#N)n4)CC[C@@H]32)C1` [Example 36, 1-((R)-2-((3R,5R,8R,9R,10S,13S,14S,17R)-3-hydroxy-3-(methoxymethyl)-13-methylhexadecahydro-1H-cyclopenta[a]phenanthren-17-yl)propyl)-1H-pyrazole-3-carbonitrile]: the IC50 was under 100 nM.
For the compound `CCC[C@@]1(O)CC[C@@]2(CC)[C@H](CC[C@H]3[C@@H]4CC[C@H]([C@@H](C)Cn5cc(C#N)cn5)[C@@]4(C)CC[C@@H]32)C1` [Example 301, 1-((R)-2-((3R,5R,8S,9S,10S,13S,14S,17R)-10-ethyl-3-hydroxy-13-methyl-3-propylhexadecahydro-1H-cyclopenta[a]phenanthren-17-yl)propyl)-1H-pyrazole-4-carbonitrile], the IC50 was under 100 nM.
As for `C[C@@]1(O)CC[C@H]2[C@H](CC[C@@H]3[C@@H]2CC[C@]2(C)[C@@H](CNC(=O)Cc4ccccc4)CC[C@@H]32)C1` [Example 8, N-(((3R,5R,8R,9R,10S,13S,14S,17S)-3-hydroxy-3,13-dimethylhexadecahydro-1H-cyclopenta[a]phenanthren-17-yl)methyl)-2-phenylacetamide], the figure is under 100 nM; as for `CCC[C@@]1(O)CC[C@@]2(COC)[C@H](CC[C@H]3[C@@H]4CC[C@H]([C@@H](C)Cn5nnc(C)n5)[C@@]4(C)CC[C@@H]32)C1` [Example 319, (3R,5R,8S,9S,10R,13S,14S,17R)-10-(methoxymethyl)-13-methyl-17-((R)-1-(5-methyl-2H-tetrazol-2-yl)propan-2-yl)-3-propylhexadecahydro-1H-cyclopenta[a]phenanthren-3-ol], under 100 nM.
On to `COC[C@@]1(O)CC[C@H]2[C@H](CC[C@@H]3[C@@H]2CC[C@]2(C)[C@@H]([C@H](C)n4cc(C#N)cn4)CC[C@@H]32)C1` [Example 151, 1-((S)-1-((3R,5R,8R,9R,10S,13S,14S,17S)-3-hydroxy-3-(methoxymethyl)-13-methylhexadecahydro-1H-cyclopenta[a]phenanthren-17-yl)ethyl)-1H-pyrazole-4-carbonitrile], for which the half-maximal inhibitory concentration (IC50) lay within 1000 to 10000 nM.
The figure for `COC[C@@]1(O)CC[C@H]2[C@H](CC[C@@H]3[C@@H]2CC[C@]2(C)[C@@H]([C@@H](C)Nc4ccc(C#N)cc4)CC[C@@H]32)C1` [Example 256] is under 100 nM; for `COc1cncc(C[C@H](C)[C@H]2CC[C@H]3[C@@H]4CC[C@@H]5C[C@](C)(O)CC[C@@H]5[C@H]4CC[C@]23C)c1` [Example 432] it is under 100 nM.
As for `C[C@H](NS(=O)(=O)c1ccccc1)[C@H]1CC[C@H]2[C@@H]3CC[C@@H]4C[C@](C)(O)CC[C@@H]4[C@H]3CC[C@]12C` [Example 17, N—((S)-1-((3R,5R,8R,9R,10S,13S,14S,17S)-3-hydroxy-3,13-dimethylhexadecahydro-1H-cyclopenta[a]phenanthren-17-yl)ethyl)benzenesulfonamide], the figure is 1000 to 10000 nM; as for `C[C@H]([C@H]1CC[C@H]2[C@@H]3CC[C@@H]4C[C@](C)(O)CC[C@@H]4[C@H]3CC[C@]12C)n1cc(C#N)cn1` [Example 156, 1-((R)-1-((3R,5R,8R,9R,10S,13S,14S,17S)-3-hydroxy-3,13-dimethylhexadecahydro-1H-cyclopenta[a]phenanthren-17-yl)ethyl)-1H-pyrazole-4-carbonitrile], under 100 nM; as for `CCOC[C@@]1(O)CC[C@H]2[C@H](CC[C@@H]3[C@@H]2CC[C@]2(C)[C@@H]([C@@H](CC)Nc4ccc(C#N)nc4)CC[C@@H]32)C1` [Example 503], 100 to 1000 nM.
As for `CCOC[C@@]1(O)CC[C@H]2[C@H](CC[C@@H]3[C@@H]2CC[C@]2(C)[C@@H]([C@@H](C)Nc4ccc(C#N)cc4C)CC[C@@H]32)C1` [Example 260], the IC50 was under 100 nM.
Take `CC[C@]12CC[C@H]3[C@@H](CC[C@@H]4C[C@](C)(O)CC[C@@H]43)[C@@H]1CC[C@@H]2[C@@H](C)Cn1cc(C#N)cn1` [Example 317, 1-((R)-2-((3R,5R,8R,9R,10S,13S,14S,17R)-13-ethyl-3-hydroxy-3-methylhexadecahydro-1H-cyclopenta[a]phenanthren-17-yl)propyl)-1H-pyrazole-4-carbonitrile]: the IC50 is under 100 nM.
